Results from US12139520B2 (priority 2020, dated 2024).
Numbered stars: 1 amine (or outer) side, 2 acyl side, 3 side chain; on linkers, the order of the positions; unused ones are H or OH. Bridge positions count the residues as written; N and C are the ends. Square brackets hold non-standard residues; d marks the D form. Peptide text beside a SMILES is read from it. * marks the point of attachment. C20 diacid = O=C(O)CCCCCCCCCCCCCCCCCCC(=O)*; γGlu = O=C(O)[C@H](CCC(=O)[*:2])N[*:1]; Hyp = O=C(O)[C@@H]1C[C@@H](O)CN1

target: T1, hAMY3 receptor (Homo sapiens, UniProt O60896+P30988); test: cAMP assay for in vitro receptor activation, hAMY3-R; assay type: cell-based; conditions: cAMP assay, hAMY3 receptor; read-out: hAMY3R EC50
T1 sequence (P30988 25-474): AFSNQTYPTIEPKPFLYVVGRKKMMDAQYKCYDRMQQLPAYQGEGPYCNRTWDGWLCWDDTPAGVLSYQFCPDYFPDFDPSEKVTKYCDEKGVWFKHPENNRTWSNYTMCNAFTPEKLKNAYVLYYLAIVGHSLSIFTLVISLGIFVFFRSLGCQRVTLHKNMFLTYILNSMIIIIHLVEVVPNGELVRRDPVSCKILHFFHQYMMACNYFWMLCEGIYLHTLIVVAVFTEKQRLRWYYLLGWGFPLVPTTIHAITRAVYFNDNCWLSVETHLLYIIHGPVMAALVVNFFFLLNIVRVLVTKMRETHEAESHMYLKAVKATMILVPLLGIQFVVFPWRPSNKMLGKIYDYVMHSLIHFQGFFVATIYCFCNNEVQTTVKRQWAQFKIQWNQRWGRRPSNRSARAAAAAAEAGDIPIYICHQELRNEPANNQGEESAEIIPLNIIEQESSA
T1 sequence (O60896 24-148 partner): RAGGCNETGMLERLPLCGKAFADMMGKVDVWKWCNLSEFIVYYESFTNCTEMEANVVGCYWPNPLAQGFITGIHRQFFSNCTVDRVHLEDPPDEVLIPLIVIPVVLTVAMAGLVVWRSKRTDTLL
Method in brief: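 Accumulated cAMP was detected by time-resolved FRET one hour after reagent addition. Beforehand, hAMY3-R-overexpressing monoclonal cells (2000/well, DPBS, 0.05% casein, 0.5 mM IBMX) received graded doses of compound for 30 min at room temperature; human amylin served as positive control.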

Row | EC50 [nM] | SMILES
1 | 0.015 | CC[C@H](C)[C@H](NC(=O)[C@H](CCC(N)=O)NC(=O)[C@H](Cc1c[nH]cn1)NC(=O)[C@H](C)NC(=O)[C@H](CC(C)C)NC(=O)[C@H](CCCNC(=N)N)NC(=O)[C@H](CCC(N)=O)NC(=O)[C@@H](NC(=O)[C@@H](NC(=O)[C@@H]1CSSC[C@H](NC(=O)CN)C(=O)N[C@@H](CCCNC(=N)N)C(=O)N[C@@H](Cc2ccccc2)C(=O)NCC(=O)N[C@@H]([C@@H](C)O)C(=O)N1)[C@@H](C)O)C(C)C)C(=O)N[C@@H](Cc1ccc(O)cc1)C(=O)N[C@@H](CCC(N)=O)C(=O)N[C@@H](Cc1ccccc1)C(=O)N[C@H](C(=O)N[C@@H](CC(=O)O)C(=O)N[C@@H](CCCCN)C(=O)N[C@@H](CC(=O)O)C(=O)N[C@@H](CCCCN)C(=O)N[C@@H](CC(=O)O)C(=O)N[C@@H](CC(N)=O)C(=O)N[C@H](C(=O)N[C@@H](C)C(=O)N1CCC[C@H]1C(=O)N[C@@H](CCCNC(=N)N)C(=O)N[C@H](C(=O)N[C@@H](CCCCN)C(=O)N[C@H](C(=O)NCC(=O)N1CCC[C@H]1C(=O)N[C@@H](CCC(N)=O)C(=O)NCC(=O)N[C@@H](Cc1ccc(O)cc1)C(N)=O)C(C)C)[C@@H](C)O)C(C)C)[C@@H](C)O [compound 368] (H-GCRFGTCTVQRLAHQIYQFTDKDKDNVAPRTKVGPQGY-NH2; disulfide 2-7; N-terminus assumed)
2 | 0.048 | CC[C@H](C)[C@H](NC(=O)[C@H](CCCCN)NC(=O)[C@@H](NC(=O)[C@H](CCCNC(=N)N)NC(=O)[C@@H]1CCCN1C(=O)[C@H](C)NC(=O)[C@@H](NC(=O)[C@H](CC(N)=O)NC(=O)[C@H](CC(=O)O)NC(=O)[C@H](CCCCN)NC(=O)[C@H](CC(=O)O)NC(=O)[C@H](CCCCN)NC(=O)[C@H](CC(=O)O)NC(=O)[C@@H](NC(=O)[C@H](Cc1ccccc1)NC(=O)[C@H](CCC(N)=O)NC(=O)[C@H](Cc1ccc(O)cc1)NC(=O)[C@H](CC(C)C)NC(=O)[C@H](Cc1ccccc1)NC(=O)[C@H](Cc1c[nH]cn1)NC(=O)[C@H](C)NC(=O)[C@H](CC(C)C)NC(=O)[C@H](CCCNC(=N)N)NC(=O)[C@H](CCC(N)=O)NC(=O)[C@@H](NC(=O)[C@@H](NC(=O)[C@@H]1CSSC[C@H](NC(=O)CNC(=O)CC[C@H](NC(=O)CCCCCCCCCCCCCCCCCCC(=O)O)C(=O)O)C(=O)N[C@@H](CCCNC(=N)N)C(=O)N[C@@H](Cc2ccccc2)C(=O)NCC(=O)N[C@@H]([C@@H](C)O)C(=O)N1)[C@@H](C)O)C(C)C)[C@@H](C)O)C(C)C)[C@@H](C)O)C(=O)NCC(=O)N1CCC[C@H]1C(=O)N[C@@H](CCC(N)=O)C(=O)NCC(=O)N[C@@H](Cc1ccc(O)cc1)C(N)=O [compound 390] ({C20 diacid-γGlu}-GCRFGTCTVQRLAHFLYQFTDKDKDNVAPRTKIGPQGY-NH2; disulfide 2-7)
3 | 0.012 | CC(C)C[C@H](NC(=O)[C@H](CCCNC(=N)N)NC(=O)[C@H](CCC(N)=O)NC(=O)[C@@H](NC(=O)[C@@H](NC(=O)[C@@H]1CSSC[C@H](NC(=O)CN)C(=O)N[C@@H](CCCNC(=N)N)C(=O)N[C@@H](Cc2ccccc2)C(=O)NCC(=O)N[C@@H]([C@@H](C)O)C(=O)N1)[C@@H](C)O)C(C)C)C(=O)N[C@@H](C)C(=O)N[C@@H](Cc1c[nH]cn1)C(=O)N[C@@H](Cc1ccccc1)C(=O)N[C@@H](CC(C)C)C(=O)N[C@@H](Cc1ccc(O)cc1)C(=O)N[C@@H](CCC(N)=O)C(=O)N[C@@H](Cc1ccccc1)C(=O)N[C@H](C(=O)N[C@@H](CC(=O)O)C(=O)N[C@@H](CCCCN)C(=O)N[C@@H](CC(=O)O)C(=O)N[C@@H](CCCCN)C(=O)N[C@@H](CC(=O)O)C(=O)N[C@@H](CC(N)=O)C(=O)N[C@H](C(=O)N[C@@H](C)C(=O)N1CCC[C@H]1C(=O)N[C@@H](CCCNC(=N)N)C(=O)N[C@H](C(=O)N[C@@H](CC(N)=O)C(=O)N[C@H](C(=O)NCC(=O)N1CCC[C@H]1C(=O)N[C@@H](CCC(N)=O)C(=O)NCC(=O)N[C@@H](Cc1ccc(O)cc1)C(N)=O)C(C)C)[C@@H](C)O)C(C)C)[C@@H](C)O [compound 54] (H-GCRFGTCTVQRLAHFLYQFTDKDKDNVAPRTNVGPQGY-NH2; disulfide 2-7; N-terminus assumed)
4 | 0.036 | CC[C@H](C)[C@H](NC(=O)[C@H](CCC(N)=O)NC(=O)[C@H](Cc1c[nH]cn1)NC(=O)[C@H](C)NC(=O)[C@H](CC(C)C)NC(=O)[C@H](CCCNC(=N)N)NC(=O)[C@H](CCC(N)=O)NC(=O)[C@@H](NC(=O)[C@@H](NC(=O)[C@@H]1CSSC[C@H](NC(=O)CN)C(=O)N[C@@H](CCCNC(=N)N)C(=O)N[C@@H](Cc2ccccc2)C(=O)NCC(=O)N[C@@H]([C@@H](C)O)C(=O)N1)[C@@H](C)O)C(C)C)C(=O)N[C@@H](Cc1ccc(O)cc1)C(=O)N[C@@H](CCC(N)=O)C(=O)N[C@@H](Cc1ccccc1)C(=O)N[C@H](C(=O)N[C@@H](CC(=O)O)C(=O)N[C@@H](CCCCN)C(=O)N[C@@H](CC(=O)O)C(=O)N[C@@H](CCCCN)C(=O)N[C@@H](CC(=O)O)C(=O)N[C@@H](CC(N)=O)C(=O)N[C@H](C(=O)N[C@@H](C)C(=O)N1CCC[C@H]1C(=O)N[C@@H](CCCNC(=N)N)C(=O)N[C@@H](CO)C(=O)N[C@@H](CCCCN)C(=O)N[C@H](C(=O)N[C@@H](CO)C(=O)N1CCC[C@H]1C(=O)N[C@@H](CC(N)=O)C(=O)NCC(=O)N[C@@H](Cc1ccc(O)cc1)C(N)=O)C(C)C)C(C)C)[C@@H](C)O [compound 384] (H-GCRFGTCTVQRLAHQIYQFTDKDKDNVAPRSKVSPNGY-NH2; disulfide 2-7; N-terminus assumed)
5 | 0.015 | CC[C@H](C)[C@H](NC(=O)[C@H](CCC(N)=O)NC(=O)[C@H](Cc1c[nH]cn1)NC(=O)[C@H](C)NC(=O)[C@H](CC(C)C)NC(=O)[C@H](CCCNC(=N)N)NC(=O)[C@H](CCC(N)=O)NC(=O)[C@@H](NC(=O)[C@@H](NC(=O)[C@@H]1CSSC[C@H](NC(=O)[C@H](CCCCN)NC(=O)CC[C@H](NC(=O)CCCCCCCCCCCCCCCCCCC(=O)O)C(=O)O)C(=O)N[C@@H](CC(N)=O)C(=O)N[C@@H]([C@@H](C)O)C(=O)N[C@@H](C)C(=O)N[C@@H]([C@@H](C)O)C(=O)N1)[C@@H](C)O)C(C)C)C(=O)N[C@@H](Cc1ccc(O)cc1)C(=O)N[C@@H](CCC(N)=O)C(=O)N[C@@H](Cc1ccccc1)C(=O)N[C@@H](C)C(=O)N[C@@H](CC(=O)O)C(=O)N[C@@H](CCCCN)C(=O)N[C@@H](CC(=O)O)C(=O)N[C@@H](CCCCN)C(=O)N[C@@H](CC(=O)O)C(=O)N[C@@H](CC(N)=O)C(=O)N[C@H](C(=O)N[C@@H](C)C(=O)N1CCC[C@H]1C(=O)N1CCC[C@H]1C(=O)N[C@H](C(=O)N[C@@H](CC(N)=O)C(=O)N[C@H](C(=O)NCC(=O)N[C@@H](CO)C(=O)N[C@@H](CC(N)=O)C(=O)NCC(=O)N1C[C@H](O)C[C@H]1C(N)=O)C(C)C)[C@@H](C)O)C(C)C [compound 83] ({C20 diacid-γGlu}-KCNTATCTVQRLAHQIYQFADKDKDNVAPPTNVGSNG[Hyp]-NH2; disulfide 2-7)
6 | 0.041 | CC[C@H](C)[C@H](NC(=O)[C@H](CC(N)=O)NC(=O)[C@H](CO)NC(=O)[C@H](CCCNC(=N)N)NC(=O)[C@@H]1CCCN1C(=O)[C@H](C)NC(=O)[C@@H](NC(=O)[C@H](CC(N)=O)NC(=O)[C@H](CC(=O)O)NC(=O)[C@H](CCCCN)NC(=O)[C@H](CC(=O)O)NC(=O)[C@H](CCCCN)NC(=O)[C@H](CC(=O)O)NC(=O)[C@@H](NC(=O)[C@H](Cc1ccccc1)NC(=O)[C@H](CCC(N)=O)NC(=O)[C@H](Cc1ccc(O)cc1)NC(=O)[C@@H](NC(=O)[C@H](CCC(N)=O)NC(=O)[C@H](Cc1c[nH]cn1)NC(=O)[C@H](C)NC(=O)[C@H](CC(C)C)NC(=O)[C@H](CCCNC(=N)N)NC(=O)[C@H](CCC(N)=O)NC(=O)[C@@H](NC(=O)[C@@H](NC(=O)[C@@H]1CSSC[C@H](NC(=O)CN)C(=O)N[C@@H](CCCNC(=N)N)C(=O)N[C@@H]([C@@H](C)O)C(=O)NCC(=O)N[C@@H]([C@@H](C)O)C(=O)N1)[C@@H](C)O)C(C)C)[C@@H](C)CC)[C@@H](C)O)C(C)C)C(=O)NCC(=O)N1CCC[C@H]1C(=O)N[C@@H](CC(N)=O)C(=O)NCC(=O)N1C[C@H](O)C[C@H]1C(N)=O [compound 151] (H-GCRTGTCTVQRLAHQIYQFTDKDKDNVAPRSNIGPNG[Hyp]-NH2; disulfide 2-7; N-terminus assumed)
7 | 0.006 | CC[C@H](C)[C@H](NC(=O)[C@H](CCC(N)=O)NC(=O)[C@H](Cc1c[nH]cn1)NC(=O)[C@H](C)NC(=O)[C@H](CC(C)C)NC(=O)[C@H](CCCNC(=N)N)NC(=O)[C@H](CCC(N)=O)NC(=O)[C@@H](NC(=O)[C@@H](NC(=O)[C@@H]1CSSC[C@H](NC(=O)[C@@H](N)CCCCN)C(=O)N[C@@H](CC(N)=O)C(=O)N[C@@H](Cc2ccccc2)C(=O)N[C@@H](C)C(=O)N[C@@H]([C@@H](C)O)C(=O)N1)[C@@H](C)O)C(C)C)C(=O)N[C@@H](Cc1ccc(O)cc1)C(=O)N[C@@H](CCC(N)=O)C(=O)N[C@@H](Cc1ccccc1)C(=O)N[C@H](C(=O)N[C@@H](CC(=O)O)C(=O)N[C@@H](CCCCN)C(=O)N[C@@H](CC(=O)O)C(=O)N[C@@H](CCCCN)C(=O)N[C@@H](CC(=O)O)C(=O)N[C@@H](CC(N)=O)C(=O)N[C@H](C(=O)N[C@@H](C)C(=O)N1CCC[C@H]1C(=O)N[C@@H](CCCNC(=N)N)C(=O)N[C@H](C(=O)N[C@@H](CCCCN)C(=O)N[C@H](C(=O)NCC(=O)N[C@@H](CO)C(=O)N[C@@H](CC(N)=O)C(=O)NCC(=O)N[C@@H](Cc1ccc(O)cc1)C(N)=O)C(C)C)[C@@H](C)O)C(C)C)[C@@H](C)O [compound 361] (H-KCNFATCTVQRLAHQIYQFTDKDKDNVAPRTKVGSNGY-NH2; disulfide 2-7; N-terminus assumed)
